Read-outs that look alike come from different tables or passages of the source.
Key:
[1] = target: T1, post-synaptic 5-HT1A receptors (Rattus norvegicus, UniProt P19327); test: Inhibition of stereotypy (rhythmic forepaw treading) induced by 8-OH-DPAT in rats; type: in vivo; conditions: for inhibition at 1 mg/kg / inhibition at 3 mg/kg / inhibition at 10 mg/kg / inhibition at 0.01 mg/kg / inhibition at 0.03 mg/kg / inhibition at 0.1 mg/kg / inhibition at 0.3 mg/kg: rat; for inhibition at 1 mg/kg: 1 mg/kg p.o.; for inhibition at 3 mg/kg: 3 mg/kg p.o.; for inhibition at 10 mg/kg: 10 mg/kg p.o.; for inhibition at 0.01 mg/kg: 0.01 mg/kg i.v.; for inhibition at 0.03 mg/kg: 0.03 mg/kg i.v.; for inhibition at 0.1 mg/kg: 0.1 mg/kg i.v.
T1 construct: from tissue; host or cells: whole animal, male Sprague-Dawley rat (in vivo)
T1 sequence (P19327 1-422): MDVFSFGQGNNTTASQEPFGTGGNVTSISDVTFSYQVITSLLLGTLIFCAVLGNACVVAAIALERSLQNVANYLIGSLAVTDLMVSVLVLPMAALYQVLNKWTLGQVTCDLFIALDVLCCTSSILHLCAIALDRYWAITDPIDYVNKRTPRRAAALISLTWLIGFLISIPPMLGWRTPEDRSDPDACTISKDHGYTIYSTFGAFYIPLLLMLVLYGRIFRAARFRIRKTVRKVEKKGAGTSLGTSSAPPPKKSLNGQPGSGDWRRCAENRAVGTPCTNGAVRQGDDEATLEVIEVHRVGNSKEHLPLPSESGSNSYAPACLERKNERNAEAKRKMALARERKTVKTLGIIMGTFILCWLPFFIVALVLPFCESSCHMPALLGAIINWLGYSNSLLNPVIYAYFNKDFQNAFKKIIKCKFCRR
Protocol: The inhibitory effect of 5-HT1A-receptor antagonists on stereotyped forepaw treading induced in rats by subcutaneous injection of 8-OH-DPAT was evaluated by the method of Tricklebank (Tricklebank et al., Eur. J. Pharmacol., 117: 15, 1985) with minor modifications as described below.
Male Sprague-Dawley rats [Crl: CD® (SD) IGS BR] weighing 150–175 g from Charles River Italia were used. The animals were housed with free access to food and water and maintained on a forced 12-hour-light/12-hour-dark cycle at 22–24° C. of temperature. On the day of the experiment, the rats were placed singly in clear plastic containers, 10–15 minutes before administration of the vehicle or compounds to be tested. For evaluation of antagonistic activity after intravenous or oral administration, the compounds were administered 1 and 4 hours before induction of stereotypy by 8-OH-DPAT (1 mg/kg subcutaneously). Observation sessions lasted 30 seconds and began 3 minutes after 8-OH-DPAT treatment and were repeated every 3 minutes over a period of 15 minutes.
The appearance of the symptom induced by postsynaptic stimulation of 5-HT1A receptors was noted, and the intensity was scored using an intensity scale in which: 0=absent, 1=equivocal, 2=present and 3=intense. Behavioural scores for treated rats were accumulated throughout the observation time (5 observation periods) and expressed as mean values of 4 rats/dose. Change in mean values of treated animals in comparison with control (vehicle) group, expressed as per-cent inhibition, was used to quantify the antagonistic activity.

human α1a-adrenoceptor = target: T2, human α1a-adrenoceptor (Homo sapiens, UniProt P35348); test: [3H]prazosin binding to cloned human α1-adrenoceptor subtypes (α1a); conditions: for Ki: [3H]prazosin, CHO cell membranes, read-out: Binding affinity (Ki, nM) α1a; for α1a/5-HT1A: selectivity: ratio of Ki at α1a and Ki at 5-HT1A
T2 construct: expressed in transfected cells
T2 sequence (P35348 1-466): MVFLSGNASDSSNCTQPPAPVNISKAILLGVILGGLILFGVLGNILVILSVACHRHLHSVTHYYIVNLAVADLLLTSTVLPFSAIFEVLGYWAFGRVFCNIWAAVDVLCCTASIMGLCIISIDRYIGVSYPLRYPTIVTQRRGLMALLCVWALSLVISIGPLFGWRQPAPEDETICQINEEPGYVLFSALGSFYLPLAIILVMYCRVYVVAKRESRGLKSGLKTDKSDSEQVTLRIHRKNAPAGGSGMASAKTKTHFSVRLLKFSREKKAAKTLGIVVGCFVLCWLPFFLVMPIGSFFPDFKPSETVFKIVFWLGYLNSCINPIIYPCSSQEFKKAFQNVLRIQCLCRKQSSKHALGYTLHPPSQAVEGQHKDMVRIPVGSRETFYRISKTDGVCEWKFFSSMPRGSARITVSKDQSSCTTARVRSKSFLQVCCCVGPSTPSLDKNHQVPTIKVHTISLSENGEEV
Protocol: Binding to cloned human α1-adrenoceptor subtypes was performed in membranes from CHO cells (chinese hamster ovary cells) transfected by electroporation with DNA expressing the gene encoding each α1-adrenoceptor subtype. Cloning and stable expression of the human α1-adrenoceptor gene was performed as previously described (Testa et al. Pharmacol. Comm., 6: 79–86,1995).
CHO cells were grown in suspension in Iscove's modified Dulbecco's medium, supplemented with 10% fetal calf serum and gentamicin (50 μg/ml), at 37° C. in 7% CO2 in an humidified incubator. Cells were collected by centrifugation, lised in ice-cold Tris 5 mM and EDTA 5 mM buffer (pH 7.4) and gently homogenised. Homogenates were centrifuged at 40000×g×20 min and pellets were resuspended in a small volume of ice-cold Tris 5 mM and EDTA 5 mM buffer (pH 7.4) and immediately frozen and stored at −80° C. until use.
CHO cell membranes were resuspended and incubated in 50 mM Tris, pH 7.4, with 0.2 nM [^3H]prazosin, in a final volume of 1.02 ml for 30 min at 25° C., in absence or presence of competing drugs. Non-specific binding was determined in the presence of 10 μM phentolamine. The incubation was stopped by rapid filtration through 0.2% polyethyleneimine pretreated Schleicher & Schuell GF52 filters using a Tomtec (PerkinElmer) cell harvester. The filters were washed with 3×1 ml of ice-cold Tris buffer, dried and the radioactivity was measured in a Betaplate (Wallac) liquid scintillation counter.
The inhibition of specific binding by the compounds was analysed to estimate the IC50 value by the non-linear curve-fitting program Allfit (De Lean et al. Am. J. Physiol. 235, E97-E102, 1978). The IC50 value is converted to an affinity constant (Ki) by the equation of Cheng & Prusoff (Biochem. Pharmacol. 22: 3099–3108, 1973).

[2] = after intravenous administration
[3] = iv, 0.3 mg/kg i.v., 1 h before 8-OH-DPAT
[4] = iv, 0.3 mg/kg i.v., 4 h before 8-OH-DPAT
[5] = po, 0.3 mg/kg p.o., 1 h before 8-OH-DPAT
[6] = po, 0.3 mg/kg p.o., 4 h before 8-OH-DPAT

COc1ccccc1N1CCN(CC[C@@H](c2ccccc2F)[C@H](O)C2CCCCC2)CC1 (racemic) [Ex. 1, 1-[(SR-RS)-4-cyclohexyl-4-hydroxy-3-(2-fluorophenyl)-butyl]-4-(2-methoxyphenyl)-piperazine]
ED75 (equieffective dose inhibiting the forepaw treading by 75%) ([1]; 1 h p.o.): 1 h p.o.: ED75 = 3.3 mg/kg/
ED75 (equieffective dose inhibiting the forepaw treading by 75%) ([1]; 4 h p.o.): 4 h p.o.: ED75 = 4.0 mg/kg
inhibition at 1 mg/kg ([1]; po, 1 h before 8-OH-DPAT): 35%
inhibition at 1 mg/kg ([1]; po, 4 h before 8-OH-DPAT): 37%
inhibition at 3 mg/kg ([1]; po, 1 h before 8-OH-DPAT): 84%
inhibition at 3 mg/kg ([1]; po, 4 h before 8-OH-DPAT): 72%
inhibition at 10 mg/kg ([1]; po, 1 h before 8-OH-DPAT): 100%
inhibition at 10 mg/kg ([1]; po, 4 h before 8-OH-DPAT): 96%
Ki (human α1a-adrenoceptor): 18 nM
α1a/5-HT1A (human α1a-adrenoceptor): 138

COc1ccccc1N1CCN(CC[C@H](c2ccccc2)[C@@H](O)C2CCCCC2)CC1 (racemic) [Ex. 5, 1-[(RS,SR)-4-Cyclohexyl-4-hydroxy-3-phenyl-butyl]-4-(2-methoxyphenyl)-piperazine, reference compound]
ED75 (equieffective dose inhibiting the forepaw treading by 75%) [1]: 4 h p.o.: ED75 = 4.6 mg/kg
ED75 (equieffective dose inhibiting the forepaw treading by 75%) ([1]; 1 h i.v.): 1 h i.v.: ED75 = 0.032 mg/kg/
ED75 (equieffective dose inhibiting the forepaw treading by 75%) ([1]; 1 h p.o.): 1 h p.o.: ED75 = 2.1 mg/kg/
ED75 (equieffective dose inhibiting the forepaw treading by 75%) ([1]; 4 h i.v.): 4 h i.v.: ED75 = 0.138 mg/kg
potency in inhibiting forepaw treading, comparison [1, 2]: practically equipotent
inhibition at 0.01 mg/kg ([1]; iv, 1 h before 8-OH-DPAT): 41%
inhibition at 0.01 mg/kg ([1]; iv, 4 h before 8-OH-DPAT): 26%
inhibition at 0.03 mg/kg ([1]; iv, 1 h before 8-OH-DPAT): 82%
inhibition at 0.03 mg/kg ([1]; iv, 4 h before 8-OH-DPAT): 54%
inhibition at 0.1 mg/kg ([1]; iv, 1 h before 8-OH-DPAT): 100%
inhibition at 0.1 mg/kg ([1]; iv, 4 h before 8-OH-DPAT): 72%
inhibition at 0.3 mg/kg [1, 3]: 100%
inhibition at 0.3 mg/kg [1, 4]: 85%
inhibition at 0.3 mg/kg [1, 5]: 8%
inhibition at 0.3 mg/kg [1, 6]: 20%
inhibition at 1 mg/kg ([1]; po, 1 h before 8-OH-DPAT): 42%
inhibition at 1 mg/kg ([1]; po, 4 h before 8-OH-DPAT): 46%
inhibition at 3 mg/kg ([1]; po, 1 h before 8-OH-DPAT): 90%
inhibition at 3 mg/kg ([1]; po, 4 h before 8-OH-DPAT): 67%
Ki (human α1a-adrenoceptor): 51 nM
α1a/5-HT1A (human α1a-adrenoceptor): 78

COc1ccccc1N1CCN(CC[C@H](c2ccccc2F)[C@@H](O)C2CCCCC2)CC1 [Ex. 1Y, 1-[(3R,4S)-4-cyclohexyl-4-hydroxy-3-(2-fluorophenyl)-butyl]-4-(2-methoxyphenyl)-piperazine]
ED75 (equieffective dose inhibiting the forepaw treading by 75%) ([1]; 1 h i.v.): 1 h i.v.: ED75 = 0.038 mg/kg/
ED75 (equieffective dose inhibiting the forepaw treading by 75%) ([1]; 1 h p.o.): 1 h p.o.: ED75 = 1.7 mg/kg/
ED75 (equieffective dose inhibiting the forepaw treading by 75%) ([1]; 4 h i.v.): 4 h i.v.: ED75 = 0.182 mg/kg
ED75 (equieffective dose inhibiting the forepaw treading by 75%) ([1]; 4 h p.o.): 4 h p.o.: ED75 = 2.6 mg/kg
potency in inhibiting forepaw treading, comparison [1, 2]: practically equipotent
potency in inhibiting forepaw treading, comparison ([1]; after oral administration, in particular at four hours): more potent than Ex. 5
inhibition at 0.01 mg/kg ([1]; iv, 1 h before 8-OH-DPAT): 37%
inhibition at 0.01 mg/kg ([1]; iv, 4 h before 8-OH-DPAT): 11%
inhibition at 0.03 mg/kg ([1]; iv, 1 h before 8-OH-DPAT): 72%
inhibition at 0.03 mg/kg ([1]; iv, 4 h before 8-OH-DPAT): 35%
inhibition at 0.1 mg/kg ([1]; iv, 1 h before 8-OH-DPAT): 100%
inhibition at 0.1 mg/kg ([1]; iv, 4 h before 8-OH-DPAT): 65%
inhibition at 0.3 mg/kg [1, 3]: 100%
inhibition at 0.3 mg/kg [1, 4]: 84%
inhibition at 0.3 mg/kg [1, 5]: 18%
inhibition at 0.3 mg/kg [1, 6]: 18%
inhibition at 1 mg/kg ([1]; po, 1 h before 8-OH-DPAT): 58%
inhibition at 1 mg/kg ([1]; po, 4 h before 8-OH-DPAT): 38%
inhibition at 3 mg/kg ([1]; po, 1 h before 8-OH-DPAT): 92%
inhibition at 3 mg/kg ([1]; po, 4 h before 8-OH-DPAT): 85%
Ki (human α1a-adrenoceptor): 24 nM
α1a/5-HT1A (human α1a-adrenoceptor): 65

COc1ccccc1N1CCN(CC[C@H](c2ccccc2F)[C@H](O)C2CCCCC2)CC1 [Ex. 2X, 1-[(3R,4R)-4-cyclohexyl-4-hydroxy-3-(2-fluorophenyl)-butyl]-4-(2-methoxyphenyl)-piperazine]
ED75 (equieffective dose inhibiting the forepaw treading by 75%) ([1]; 1 h i.v.): 1 h i.v.: ED75 = 0.041 mg/kg/
ED75 (equieffective dose inhibiting the forepaw treading by 75%) ([1]; 4 h i.v.): 4 h i.v.: ED75 = 0.152 mg/kg
potency in inhibiting forepaw treading, comparison [1, 2]: practically equipotent
inhibition at 0.01 mg/kg ([1]; iv, 1 h before 8-OH-DPAT): 39%
inhibition at 0.01 mg/kg ([1]; iv, 4 h before 8-OH-DPAT): 6%
inhibition at 0.03 mg/kg ([1]; iv, 1 h before 8-OH-DPAT): 65%
inhibition at 0.03 mg/kg ([1]; iv, 4 h before 8-OH-DPAT): 49%
inhibition at 0.1 mg/kg ([1]; iv, 1 h before 8-OH-DPAT): 100%
inhibition at 0.1 mg/kg ([1]; iv, 4 h before 8-OH-DPAT): 63%
inhibition at 0.3 mg/kg [1, 3]: 100%
inhibition at 0.3 mg/kg [1, 4]: 89%
Ki (human α1a-adrenoceptor): 44 nM
α1a/5-HT1A (human α1a-adrenoceptor): 183

From US7071197B2, “N,N-disubstituted diazocycloalkanes” (Recordati S.A., priority 2002, dated 2006)
